Source: US6355799B1, “Substituted benzene compounds, process for their preparation, and herbicidal and defoliant compositions containing them” (ISK Americas Incorporated, priority 1997, dated 2002)

Legend:
Assay type in all cases: in vivo
[1] = test system: redroot pigweed (Amaranthus retroflexus, AMARE); assay: Pre-emerge test, greenhouse herbicide activity screening; details: pre-emerge, phytotoxicity rating 0-100 at 14 days after application
Procedure, shortened: (§1)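 Compounds in acetone were track-sprayed at 187 l/ha, 15–1000 g ai/ha, onto sandy loam pots. Pre-emerge seeds were sown one day before spraying, with surface watering afterwards. Post-emerge plants were at the 2–3 leaf stage and sprayed with 0.25% v/v non-ionic surfactant. Injury was rated 0–100 at 14 days.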

[2] = test system: upland rice (Oryza sp., var. Tebonnet, RICE); assay: Pre-emerge test, crop safety; details: crop damage, pre-emerge, phytotoxicity rating 0-100 at 14 days after application
Procedure, shortened: (§2)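 Plants grown in 10 cm pots of sandy loam mix received acetone-dissolved compounds through a moving flat-fan nozzle. Doses ranged from 15 to 1000 g ai/ha. Pre-emerge pots were seeded one day earlier, post-emerge pots 8–21 days earlier. Fourteen days on, each pot was graded 0–100 for damage.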

[3] = test system: field corn (Zea mays L., var. Dekalb 535, CORN); assay: Pre-emerge test, crop safety; details: crop damage, pre-emerge, phytotoxicity rating 0-100 at 14 days after application
Procedure, shortened: as §2

[4] = test system: sicklepod (Cassia obtusifolia, CASOB); assay: Post-emerge test, greenhouse herbicide activity screening; details: post-emerge, 14 days after application, rating scale 0-100
Procedure, shortened: as §1

[5] = test system: lambsquarters (Chenopodium album, CHEAL); assay: as above; details: post-emerge, 14 days after application, rating scale 0-100
Procedure, shortened: as §1

[6] = test system: large crabgrass (Digitaria sanguinalis, DIGSA); assay: as above; details: post-emerge, 14 days after application, rating scale 0-100
Procedure, shortened: as §1

[7] = test system: velvetleaf (Abutilon theophrasti, ABUTH); assay: as above; details: post-emerge, 14 days after application, rating scale 0-100
Procedure, shortened: as §1

[8] = test system: johnsongrass (Sorghum halepense, SORHA); assay: as above; details: post-emerge, 14 days after application, rating scale 0-100
Procedure, shortened: as §1

[9] = test system: ivyleaf morningglory (Ipomoea hederacea, IPOHE); assay: as above; details: post-emerge, 14 days after application, rating scale 0-100
Procedure, shortened: as §1

[10] = test system: barnyardgrass (Echinochloa crus-galli, ECHCG); assay: as above; details: post-emerge, 14 days after application, rating scale 0-100
Procedure, shortened: as §1

[11] = test system: green foxtail (Setaria viridis, SETVI); assay: as above; details: post-emerge, 14 days after application, rating scale 0-100
Procedure, shortened: as §1

[12] = test system: redroot pigweed (Amaranthus retroflexus, AMARE); assay: as above; details: post-emerge, 14 days after application
Procedure, shortened: as §1

[13] = test system: upland rice (Oryza sp., var. Tebonnet, RICE); assay: Post-emerge test, crop safety; details: post-emerge, 14 days after application, rating scale 0-100
Procedure, shortened: (§3)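 Fourteen days after spraying, crop and weed injury was graded visually from 0, no effect, to 100, every plant dead. Test substances were dissolved in acetone and applied at 15–1000 g ai/ha with a flat-fan nozzle. Application was either pre-emergence, one day after sowing, or post-emergence at the 2–3 leaf stage.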

[14] = test system: field corn (Zea mays L., var. Dekalb 535, CORN); assay: Post-emerge test, crop safety; details: post-emerge, 14 days after application, rating scale 0-100
Procedure, shortened: as §3

[15] = test system: sicklepod (Cassia obtusifolia, CASOB); assay: Pre-emerge test, greenhouse herbicide activity screening; details: pre-emerge, phytotoxicity rating 0-100 at 14 days after application
Procedure, shortened: as §3

[16] = test system: lambsquarters (Chenopodium album, CHEAL); assay: as above; details: pre-emerge, phytotoxicity rating 0-100 at 14 days after application
Procedure, shortened: as §3

[17] = test system: large crabgrass (Digitaria sanguinalis, DIGSA); assay: as above; details: pre-emerge, phytotoxicity rating 0-100 at 14 days after application
Procedure, shortened: as §3

[18] = test system: velvetleaf (Abutilon theophrasti, ABUTH); assay: as above; details: pre-emerge, phytotoxicity rating 0-100 at 14 days after application
Procedure, shortened: as §3

[19] = test system: johnsongrass (Sorghum halepense, SORHA); assay: as above; details: pre-emerge, phytotoxicity rating 0-100 at 14 days after application
Procedure, shortened: as §3

[20] = test system: ivyleaf morningglory (Ipomoea hederacea, IPOHE); assay: as above; details: pre-emerge, rate 63 g ai/ha, phytotoxicity rating 0-100 at 14 days after application
Procedure, shortened: as §3

[21] = test system: barnyardgrass (Echinochloa crus-galli, ECHCG); assay: as above; details: pre-emerge, phytotoxicity rating 0-100 at 14 days after application
Procedure, shortened: as §3

[22] = test system: green foxtail (Setaria viridis, SETVI); assay: as above; details: pre-emerge, phytotoxicity rating 0-100 at 14 days after application
Procedure, shortened: as §3

## Cc1c(Cl)cc(F)c(-n2c(=O)cc(C(F)(F)F)n(C)c2=O)c1NC(=O)OCCc1ccccc1 [4-57]
[1]; rate 63 g ai/ha
  Pre-emerge Herbicidal Activity AMARE: 95
[1]; rate 250 g ai/ha
  Pre-emerge Herbicidal Activity AMARE: 100
[2]; rate 63 g ai/ha
  Pre-emerge Herbicidal Activity RICE: 20
[2]; rate 250 g ai/ha
  Pre-emerge Herbicidal Activity RICE: 70
[3]; rate 63 g ai/ha
  Pre-emerge Herbicidal Activity CORN: 0
[3]; rate 250 g ai/ha
  Pre-emerge Herbicidal Activity CORN: 45
[4]; 63 g ai/ha
  phytotoxicity rating CASOB: 60
[4]; 250 g ai/ha
  phytotoxicity rating CASOB: 100
[5]; 63 g ai/ha
  phytotoxicity rating CHEAL: 95
[5]; 250 g ai/ha
  phytotoxicity rating CHEAL: 100
[6]; 63 g ai/ha
  phytotoxicity rating DIGSA: 10
[6]; 250 g ai/ha
  phytotoxicity rating DIGSA: 60
[7]; 63 g ai/ha
  phytotoxicity rating ABUTH: 100
[7]; 250 g ai/ha
  phytotoxicity rating ABUTH: 100
[8]; 63 g ai/ha
  phytotoxicity rating SORHA: 30
[8]; 250 g ai/ha
  phytotoxicity rating SORHA: 50
[9]; 63 g ai/ha
  phytotoxicity rating IPOHE: 100
[9]; 250 g ai/ha
  phytotoxicity rating IPOHE: 100
[10]; 63 g ai/ha
  phytotoxicity rating ECHCG: 30
[10]; 250 g ai/ha
  phytotoxicity rating ECHCG: 40
[11]; 63 g ai/ha
  phytotoxicity rating SETVI: 50
[11]; 250 g ai/ha
  phytotoxicity rating SETVI: 90
[12]; 63 g ai/ha, rating scale 0-100 (0 no damage, 100 complete death)
  phytotoxicity rating AMARE: 100
[12]; 250 g ai/ha, rating scale 0-100
  phytotoxicity rating AMARE: 100
[13]; 63 g ai/ha
  phytotoxicity rating RICE (crop damage): 50
[13]; 250 g ai/ha
  phytotoxicity rating RICE (crop damage): 80
[14]; 63 g ai/ha
  phytotoxicity rating CORN (crop damage): 40
[14]; 250 g ai/ha
  phytotoxicity rating CORN (crop damage): 90
[15]; rate 63 g ai/ha
  Pre-emerge Herbicidal Activity CASOB: 10
[15]; rate 250 g ai/ha
  Pre-emerge Herbicidal Activity CASOB: 100
[16]; rate 63 g ai/ha
  Pre-emerge Herbicidal Activity CHEAL: 100
[16]; rate 250 g ai/ha
  Pre-emerge Herbicidal Activity CHEAL: 100
[17]; rate 63 g ai/ha
  Pre-emerge Herbicidal Activity DIGSA: 60
[17]; rate 250 g ai/ha
  Pre-emerge Herbicidal Activity DIGSA: 95
[18]; rate 63 g ai/ha
  Pre-emerge Herbicidal Activity ABUTH: 100
[18]; rate 250 g ai/ha
  Pre-emerge Herbicidal Activity ABUTH: 100
[19]; rate 63 g ai/ha
  Pre-emerge Herbicidal Activity SORHA: 10
[19]; rate 250 g ai/ha
  Pre-emerge Herbicidal Activity SORHA: 70
[20]
  Pre-emerge Herbicidal Activity IPOHE: 50
[21]; rate 63 g ai/ha
  Pre-emerge Herbicidal Activity ECHCG: 20
[21]; rate 250 g ai/ha
  Pre-emerge Herbicidal Activity ECHCG: 75
[22]; rate 63 g ai/ha
  Pre-emerge Herbicidal Activity SETVI: 80
[22]; rate 250 g ai/ha
  Pre-emerge Herbicidal Activity SETVI: 100
